How the values were obtained:
human cathepsin F = target: T1, human cathepsin F (Homo sapiens, UniProt Q9UBX1); test: Cathepsin F assay (hCat F); format: biochemical; settings: human cathepsin F 10 nM, Z-Phe-Arg-AMC 8 μM, pH 5.5, 15 min preincubation; read-out: hCat F IP
T1 sequence (Q9UBX1 271-484): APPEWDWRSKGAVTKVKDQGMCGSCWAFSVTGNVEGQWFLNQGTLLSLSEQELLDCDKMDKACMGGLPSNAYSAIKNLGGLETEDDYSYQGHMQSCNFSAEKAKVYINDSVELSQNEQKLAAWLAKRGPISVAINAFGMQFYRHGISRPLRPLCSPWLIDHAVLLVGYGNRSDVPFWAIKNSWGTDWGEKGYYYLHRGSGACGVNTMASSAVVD
In short: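 Human cathepsin F (10 nM) in 50 mM MES pH 5.5, 2.5 mM EDTA, 2.5 mM DTT, 10% DMSO was preincubated 15 min at RT with compounds from a ⅓ DMSO dilution series (500–0.025 μM stocks). Z-Phe-Arg-AMC was added (8 μM as added), and AMC release was read by fluorescence (360/460 nm) for 20 min. Percent inhibition was fitted to a dose-response model.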

human cathepsin K = human cathepsin K (UniProt P43236); test: Cathepsin K Assay (hrbCat K); format: biochemical; settings: human cathepsin K 0.4 nM, Z-Leu-Arg-AMC 8 μM, pH 5.5, 15 min preincubation; read-out: hrbCat K IP
In short: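 Human cathepsin K (0.4 nM) in pH 5.5 MES buffer with EDTA, DTT and 10% DMSO was preincubated 15 min at room temperature with compound from a ⅓ dilution series (500-0.025 μM DMSO stocks). Z-Leu-Arg-AMC (8 μM) was then added, and AMC release was followed fluorometrically (Ex 360/Em 460 nm) for 30 min; inhibition was fitted to a dose-response model.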

Compound | IC50 (human cathepsin F) | IC50 (human cathepsin K)
N#CC(NC(=O)[C@@H]1CC(F)(F)CC[C@H]1c1oc(C(F)(F)C(F)(F)F)nc1-c1ccc(C(=O)N2CCOCC2)cc1)C1CCOCC1 (single isomer, unassigned) [Example 145, (1R,2R)-N-((S or R)-cyano(tetrahydro-2H-pyran-4-yl)methyl)-5,5-difluoro-2-(4-(4-(morpholine-4-carbonyl)phenyl)-2-(perfluoroethyl)oxazol-5-yl)cyclohcxanecarboxamide] | 1.09 µM | 0.003 µM
C[C@H]1CC(F)(F)CC[C@@H]1c1nc(-c2ccc(N3CCS(=O)(=O)CC3)cc2)c([C@@H]2CCCC[C@H]2C(=O)NC2(C#N)CC2)o1 [Example 108, (1R,2R)-N-(1-cyanocyclopropyl)-2-(2-((1S,2S)-4,4-difluoro-2-methylcyclohexyl)-4-(4-(1,1-dioxidothiomorpholino)phenyl)oxazol-5-yl)cyclohexanecarboxamide] | 1.39 µM | 0.00208 µM
N#CC1(NC(=O)[C@@H]2CCCC[C@H]2c2sc(-c3ccc(F)cc3)nc2-c2ccc(N3CCS(=O)(=O)CC3)cc2)CC1 [Example 56, (1R,2R)-N-(1-cyanocyclopropyl)-2-(4-(4-(1,1-dioxidothiomorpholino)phenyl)-2-(4-fluorophenyl)thiazol-5-yl)cyclohexanecarboxamide] | 0.722 µM | 0.00319 µM
CS(=O)(=O)C1CN(c2ccc(-c3nc(-c4ccc(F)cc4F)oc3[C@@H]3CCCC[C@H]3C(=O)NC3(C#N)CC3)cc2)C1 [Example 39, (1R,2R)-N-(1-cyanocyclopropyl)-2-(2-(2,4-difluorophenyl)-4-(4-(3-(methylsulfonyl)azetidin-1-yl)phenyl)oxazol-5-yl) cyclohexanecarboxamide] | 0.702 µM | 0.00211 µM
CS(=O)(=O)C1CN(c2ccc(-c3nc(C(F)(F)C(F)(F)F)oc3[C@@H]3CCCC[C@H]3C(=O)NC3(C#N)CC3)cc2)C1 [Example 23, (1R,2R)-N-(1-cyanocyclopropyl)-2-(4-(4-(3-(methylsulfonyl)azetidin-1-yl)phenyl)-2-(perfluoroethyl)oxazol-5-yl)cyclohexanecarboxamide] | 0.383 µM | 0.00062 µM
CC(C)(C)OC(=O)Nc1ccc(-c2nc(-c3ccc(F)cc3)oc2[C@@H]2CCCC[C@H]2C(=O)NC2(C#N)CC2)cc1 [Example 49, tert-butyl (4-(5-((1R,2R)-2-((1-cyanocyclopropyl)carbamoyl)cyclohexyl)-2-(4-fluorophenyl)oxazol-4-yl)phenyl)carbamate] | 1.34 µM | 0.00401 µM
CC(C#N)NC(=O)[C@@H]1CCCC[C@H]1c1oc(-c2ccc(F)cc2)nc1-c1ccc(N2CCS(=O)(=O)CC2)cc1 (single isomer, unassigned) [Example 122, (1R,2R)-N-((S or R)-1-cyanoethyl)-2-(4-(4-(1,1-dioxidothiomorpholino)phenyl)-2-(4-fluorophenyl)oxazol-5-yl)cyclohexanecarboxamide] | 0.198 µM | 0.0008 µM

More lines, in order of falling IC50 (human cathepsin F), values ahead:

IC50 (human cathepsin F) | IC50 (human cathepsin K) | Compound
0.993 µM | 0.00111 µM | N#CC1(NC(=O)[C@@H]2CCCC[C@H]2c2oc(-c3cncnc3)nc2-c2ccc(N3CCS(=O)(=O)CC3)cc2)CC1 [Example 35, (1R,2R)-N-(1-cyanocyclopropyl)-2-(4-(4-(1,1-dioxidothiomorpholino)phenyl)-2-(pyrimidin-5-yl)oxazol-5-yl) cyclohexanecarboxamide]
0.931 µM | 0.0011 µM | N#CC1(NC(=O)[C@@H]2CCCC[C@H]2c2oc(C3(C(F)(F)F)CC3)nc2-c2ccc(N3CCS(=O)(=O)CC3)cc2)CC1 [Example 110, (1R,2R)-N-(1-cyanocyclopropyl)-2-(4-(4-(1,1-dioxidothiomorpholino)phenyl)-2-(1-(trifluoromethyl)cyclopropyl)oxazol-5-yl)cyclohexanecarboxamide]
0.631 µM | 0.00048 µM | N#CC1(NC(=O)[C@@H]2CCCC[C@H]2c2oc(-c3cccc(Cl)c3F)nc2-c2ccc(N3CCS(=O)(=O)CC3)cc2)CC1 [Example 6, (1R,2R)-2-(2-(3-chloro-2-fluorophenyl)-4-(4-(1,1-dioxidothiomorpholino)phenyl)oxazol-5-yl)-N-(1-cyanocyclopropyl)cyclohexanecarboxamide]
